Experimental data from patent US6303789A, “Benzamides with tetrahydrofuranyloxy substitutents as phosphodiesterase 4 inhibitors” (Byk Gulden Lomberg Chemische Fabrik GmbH, priority 1998, dated 2001).

Tested on: PDE4
Assay: Inhibition of PDE4 activity (method of Bauer and Schwabe, adapted to microtiter plates)
Format: biochemical
Settings: inhibitory concentration as -log IC50 (mol/l)

Question: COc1ccc(C(=O)Nc2c(Cl)cncc2Cl)c2c1OC1(COCC1OC)C2 (stereo not shown) [Compound 4, N-(3,5-Dichloropyridin-4-yl)-2,3-dihydro-4',7-dimethoxybenzofuran-2-spiro-3'-tetrahydro-furan-4-carboxamide] was tested. Which “Inhibition of the PDE4 activity, -log IC50” value (shortened to “Inhibition … -log IC50”) did it give?
Answer: The value was 8.11.

Question: With COc1ccc(C(=O)Nc2c(Cl)cncc2Cl)cc1OC1COCC1OCc1ccccc1 (stereo not shown) [Compound 3, N-(3,5-Dichloropyridin-4-yl)-3-(4-benzyloxytetrahydrofuran-3-yloxy)-4-methoxybenzamide] as the compound, how does the “Inhibition … -log IC50” value read?
Answer: Its value is 8.70.

Question: For COc1ccc(C(=O)Nc2c(Cl)cncc2Cl)c2c1OC1(COCC1OCc1ccccc1)C2 (stereo not shown) [Compound 5, N-(3,5-Dichloropyridin-4-yl)-2,3-dihydro-4'-benzyloxy-7-methoxybenzofuran-2-spiro-3'-tetrahydrofuran-4-carboxamide], which “Inhibition … -log IC50” value is on record?
Answer: The value was 8.58.

Question: How did the “Inhibition … -log IC50” value turn out when COc1ccc(C(=O)Nc2c(Cl)cncc2Cl)cc1OC1COCC1OC (stereo not shown) [Compound 1, N-(3,5-Dichloropyridin-4-yl)-4-methoxy-3-(4-methoxytetrahydrofuran-3-yloxy)benzamide] was run?
Answer: Its value is 8.24.

Question: Which “Inhibition … -log IC50” value does the source give for COc1ccc(C(=O)Nc2c(Cl)cncc2Cl)cc1OC1COCC1O (stereo not shown) [Compound 6, N-(3,5-Dichloropyridin-4-yl)-3-(4-hydroxytetrahydrofuran-3-yloxy)-4-methoxybenzamide] here?
Answer: Its value is 8.02.

Question: Which “Inhibition … -log IC50” value does the source give for CCOC1COCC1Oc1cc(C(=O)Nc2c(Cl)cncc2Cl)ccc1OC (stereo not shown) [Compound 2, N-(3,5-Dichloropyridin-4-yl)-3-(4-ethoxytetrahydrofuran-3-yloxy)-4-methoxybenzamide] here?
Answer: The value was 8.25.

Question: COc1ccc(C(=O)Nc2c(Cl)cncc2Cl)cc1OC1COCC1OCSC (stereo not shown) [Compound 7, N-(3,5-Dichloropyridin-4-yl)-4-methoxy-3-(4-methylthiomethyloxytetrahydrofuran-3-yloxy)-benzamide] was tested. Which “Inhibition … -log IC50” value did it give?
Answer: The value was 8.54.
